The results in this text go back to ChEMBL document CHEMBL5344471, “64Cu-Labeled Boron-Containing Cyclic RGD Peptides for BNCT and PET Imaging” (ACS Med Chem Lett, 2024).

Activity calls are given as the source filed them. The rule behind the calls is not given here.

Data set [1] in a line: Biodistribution in Balb/c mouse xenografted with human U-87 MG cells by measuring ratio of boron concentration in tumor to kidney at 0.04 mmol,iv administrated for 1 hr by ICP-MS analysis. To be noted: in vivo. It is filed as ADME, organism-based. For orientation: Xenograft models place foreign cells or tissue in a host animal.
Data set [2] in a line: Biodistribution in Balb/c mouse xenografted with human U-87 MG cells by measuring ratio of boron concentration in tumor to brain at 0.04 mmol,iv administrated for 1 hr by ICP-MS analysis. It is filed as ADME, organism-based. To be noted: in vivo.
In the next data set the test system is U-87 MG. Kind of data set: Cytotoxicity against human U-87 MG cells at 10 to 400 uM incubated for 24 hrs by CCK-8 assay. It is filed as functional, cell-based. To be noted: U-87MG ATCC, dose 10-400 µM.
Data set [3] in a line: Biodistribution in Balb/c mouse xenografted with human U-87 MG cells by measuring ratio of boron concentration in tumor to muscle at 0.04 mmol,iv administrated for 1 hr by ICP-MS analysis. It is filed as ADME, organism-based. To be noted: in vivo.
Data set [4] in a line: Biodistribution in Balb/c mouse xenografted with human U-87 MG cells by measuring ratio of boron concentration in tumor to liver at 0.04 mmol,iv administrated for 1 hr by ICP-MS analysis. It is filed as ADME, organism-based. To be noted: in vivo.

Consider `N=C(N)NCCC[C@@H]1NC(=O)[C@H](CCCCN)NC(=O)[C@@H](Cc2ccc(B(O)O)cc2)NC(=O)[C@H](CC(=O)O)NC(=O)CNC1=O`, for which the Ratio in data set [1] worked out at 0.43; in data set [2] it was 13.4; in data set [3], 2.41; in data set [4], 2.5. In the data set on U-87 MG, the result was inactive.
